Results on 13 compounds are retold here after patent US20100152188A1, “Novel Heterocyclic Compounds” (priority 2005, published 2010).

In one test the test system is HCT116. Kind of test: Anti-cancer screen (MTT), HCT116. It counts as cell-based. To be noted: Homo sapiens, HCT-116, 48 hours with compound, tested at 0.01-100 µM. In outline:
(§1)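 GI50, TGI and LC50 derived from % growth, normalized to untreated wells and a time-zero plate read at compound addition. Compound applied for 48 h at five concentrations (0.01–100 μM) to 5000 cells/well in DMEM with 10% FBS; viability by 3 h MTT, read at 570 nm.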

In the next test the test system is NCIH460. In words: Anti-cancer screen (MTT), NCIH460. It counts as cell-based. The settings on record: Homo sapiens, NCI-H460, 48 hours with compound, tested at 0.01-100 µM. In outline:
as §1

The test system of test [1] is NCIH460, HCT116, MDAMB-231/U 251. In words: Anti-cancer screen, mean GI50 over the cell lines. It counts as cell-based. The settings on record: in µM. Put shortly: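 Growth was scored by MTT absorbance at 570 nm relative to control wells and a pre-treatment T0 reading. Compounds were tested at five final concentrations (0.01–100 µM, triplicate) for 48 h on NCIH460, HCT116 and U251 cells, each plated at 5000 cells/well 24 h before dosing.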

For another test, the system named is HDAC. In words: HDAC inhibition. The test is classed as biochemical. The settings on record: for HDAC Inhibition 1 μM: compound at 1 μM; for HDAC Inhibition 10 μM: compound at 10 μM.
In the next test the test system is MDAMB-231/U 251. Kind of test: Anti-cancer screen (MTT), MDAMB-231/U 251. The test is classed as cell-based. To be noted: for CC50: 48 h, read-out: MDAMB-231/U 251 LC50; for GI50 / IC (TGI): 48 hours with compound, MTT, tested at 0.01-100 µM. In outline:
as §1

With `O=C(NCc1ccc(C(=O)NO)cc1)OCc1nccs1` [Example 31, 1,3-Thiazol-2-ylmethyl{4-[(hydroxyamino)carbonyl]benzyl}carbamate], in the test on HCT116, the GI50 was found to be 0.02 µM, the IC (TGI) amounted to 0.97 µM and the LC50 (concentration giving 50% net cell kill relative to T0) came to 39 µM. Further, in the test with NCIH460, the 50% growth inhibitory concentration (GI50) worked out at 0.02 µM, the IC (TGI) amounted to 0.9 µM and the LC50 was 92 µM. In addition, in test [1], the “Mean GI50” value was 10.7. Also, in the test with HDAC, half-maximal inhibition (IC50) required 130 nM, the “HDAC Inhibition 1 μM” value is reported as 82.6 and the “HDAC Inhibition 10 μM” value is 87.4. Further, in the test with MDAMB-231/U 251, the CC50 is above 100 µM, the GI50 turned out to be 32 µM and the IC (TGI) is above 100 µM.
For `O=C(NCc1ccc(C(=O)NO)cc1)OCC1COc2ccccc2O1` (centres unmarked) [Example 32, 2,3-Dihydro-1,4-benzodioxin-2-ylmethyl {4-[(hydroxyamino)carbonyl]benzyl}carbamate], in the test on HCT116, the GI50 came out at 5 µM, the IC (TGI) worked out at 25 µM and the LC50 (concentration giving 50% net cell kill relative to T0) is above 100 µM. Besides, in the test on NCIH460, the GI50 is 5 µM, the IC (TGI) came out at 42 µM and the median lethal concentration (LC50) stood at 95 µM. Also, the “Mean GI50” value in test [1] came out at 7. In addition, in the test on HDAC, the “HDAC Inhibition 1 μM” value was determined as 78.12 and the “HDAC Inhibition 10 μM” value was 92.67. Also, in the test with MDAMB-231/U 251, the CC50 was found to be 80 µM, the GI50 is 11 µM and the IC (TGI) amounted to 45 µM.
`O=C(NCc1ccc(C(=O)NO)cc1)OCc1nc2ccccc2[nH]1` [Example 33, 1H-Benzimidazol-2-ylmethyl{4-[(hydroxyamino)carbonyl]benzyl}carbamate]: in the test with HCT116, the GI50 was 4.5 µM, the IC (TGI) was 20 µM and the LC50 (concentration giving 50% net cell kill relative to T0) was above 100 µM. Further, in the test with NCIH460, the GI50 is 1 µM, the IC (TGI) amounted to 68 µM and the LC50 is above 100 µM. The “Mean GI50” value in test [1] was 2.8. For the same compound, in the test on HDAC, 250 nM corresponded to half-maximal inhibition (IC50), the “HDAC Inhibition 1 μM” value came to 82.77 and the “HDAC Inhibition 10 μM” value is recorded as 92.11. Besides, in the test with MDAMB-231/U 251, the CC50 worked out at 60 µM, the GI50 came out at 3 µM and the IC (TGI) was 8 µM.
On to `O=C(NCc1ccc(C(=O)NO)cc1)OCn1nnc2ccccc21` [Example 34, 1H-1,2,3-Benzotriazol-1-ylmethyl{4-[(hydroxyamino)carbonyl]benzyl}carbamate], for which, in the test with HCT116, the GI50 worked out at 60 µM, the IC (TGI) is above 100 µM and the LC50 (concentration giving 50% net cell kill relative to T0) was above 100 µM. Besides, in the test on NCIH460, the GI50 worked out at 58 µM, the IC (TGI) was above 100 µM and the LC50 is above 100 µM. In addition, the “Mean GI50” value in test [1] is 49.3. Besides, in the test with HDAC, the “HDAC Inhibition 1 μM” value turned out to be 62.1 and the “HDAC Inhibition 10 μM” value turned out to be 98.6. Further, in the test on MDAMB-231/U 251, the CC50 was above 100 µM, the GI50 worked out at 30 µM and the IC (TGI) was above 100 µM.
Regarding `O=C(NCc1ccc(C(=O)NO)cc1)OCc1ccnc2ccccc12` [Example 37, Quinolin-4-ylmethyl{4-[(hydroxyamino)carbonyl]benzyl}carbamate], in the test on HCT116, the GI50 is 6 µM, the IC (TGI) stood at 20 µM and the LC50 (concentration giving 50% net cell kill relative to T0) amounted to 65 µM. In the test on NCIH460, the GI50 was 30 µM, the IC (TGI) was determined as 58 µM and the LC50 was determined as 90 µM. Also, in test [1], the “Mean GI50” value is on record as 13.3. Further, in the test with HDAC, the “HDAC Inhibition 1 μM” value was found to be 67.04 and the “HDAC Inhibition 10 μM” value came out at 85.01. Moreover, in the test on MDAMB-231/U 251, the CC50 was 95 µM, the GI50 was 4 µM and the IC (TGI) came out at 18 µM.
Turning to `CNC(=O)c1ccc(CNC(=O)OCc2cccs2)cc1` [Example 40, 2-Thienylmethyl{4-[(methylamino)carbonyl]benzyl}carbamate], in the test with HCT116, the GI50 was determined as 100 µM, the IC (TGI) was above 100 µM and the LC50 (concentration giving 50% net cell kill relative to T0) is above 100 µM. In addition, in the test with NCIH460, the GI50 was above 100 µM, the IC (TGI) is above 100 µM and the LC50 is above 100 µM. Besides, the “Mean GI50” value in test [1] is listed as above 100. Further, in the test on HDAC, the “HDAC Inhibition 1 μM” value is −1.9 and the “HDAC Inhibition 10 μM” value is recorded as 8.6. Also, in the test on MDAMB-231/U 251, the CC50 is above 100 µM, the GI50 worked out at 14 µM and the IC (TGI) was above 100 µM.
For the compound `CONC(=O)c1ccc(CNC(=O)OCc2cccs2)cc1` [Example 43, 2-Thienylmethyl{4-[(methoxyamino)carbonyl]benzyl}carbamate], in the test on HCT116, the GI50 was above 100 µM, the IC (TGI) is above 100 µM and the LC50 (concentration giving 50% net cell kill relative to T0) is above 100 µM. In the test on NCIH460, the GI50 was above 100 µM, the IC (TGI) is above 100 µM and the LC50 is above 100 µM. The “Mean GI50” value in test [1] is recorded as above 100. For the same compound, in the test with HDAC, the “HDAC Inhibition 1 μM” value turned out to be 1.9 and the “HDAC Inhibition 10 μM” value was 8.10. Also, in the test on MDAMB-231/U 251, the CC50 is above 100 µM, the GI50 is above 100 µM and the IC (TGI) was above 100 µM.
With `CN(O)C(=O)c1ccc(CNC(=O)OCc2c(F)cc(F)cc2F)cc1` [Example 45, 2,4,6-Trifluorobenzyl(4-{[hydroxy(methyl)amino]carbonyl}benzyl)carbamate], in the test with HCT116, the GI50 is above 100 µM, the IC (TGI) was above 100 µM and the LC50 (concentration giving 50% net cell kill relative to T0) was above 100 µM. In the test on NCIH460, the GI50 was found to be 90 µM, the IC (TGI) is above 100 µM and the LC50 was above 100 µM. Besides, in test [1], the “Mean GI50” value is on record as above 100. Further, in the test with HDAC, the “HDAC Inhibition 1 μM” value is reported as 4.28 and the “HDAC Inhibition 10 μM” value is on record as −0.76. In addition, in the test on MDAMB-231/U 251, the CC50 was above 100 µM, the GI50 turned out to be 2.5 µM and the IC (TGI) is 65 µM.
In the case of `CN(O)C(=O)c1ccc(CNC(=O)OCc2cccs2)cc1` [Example 46, 2-Thienylmethyl(4-{[hydroxy(methyl)amino]carbonyl}benzyl)carbamate], in the test with HCT116, the GI50 is 88 µM, the IC (TGI) was above 100 µM and the LC50 (concentration giving 50% net cell kill relative to T0) is above 100 µM. In the test on NCIH460, the GI50 came out at 70 µM, the IC (TGI) is above 100 µM and the LC50 is above 100 µM. Moreover, the “Mean GI50” value in test [1] was 66. Further, in the test with HDAC, the “HDAC Inhibition 1 μM” value is on record as −4.01 and the “HDAC Inhibition 10 μM” value was −2.70. Besides, in the test with MDAMB-231/U 251, the CC50 is above 100 µM, the GI50 amounted to 40 µM and the IC (TGI) turned out to be 90 µM.
Consider `CN(O)C(=O)c1ccc(CNC(=O)OCc2c(F)c(F)c(F)c(F)c2F)cc1` [Example 47, Tentafluorobenzyl(4-{[hydroxy(methyl)amino]carbonyl}benzyl)carbamate], for which, in the test with HCT116, the GI50 came to 52 µM, the IC (TGI) is above 100 µM and the LC50 (concentration giving 50% net cell kill relative to T0) was above 100 µM. In the test with NCIH460, the GI50 turned out to be 56 µM, the IC (TGI) was above 100 µM and the LC50 is above 100 µM. The “Mean GI50” value in test [1] came to 48.33. Also, in the test on HDAC, the “HDAC Inhibition 1 μM” value was −5.89 and the “HDAC Inhibition 10 μM” value is reported as −2.12. In addition, in the test on MDAMB-231/U 251, the CC50 was above 100 µM, the GI50 turned out to be 37 µM and the IC (TGI) was 74 µM.
Take `CON(C)C(=O)c1ccc(CNC(=O)OCc2cccs2)cc1` [Example 48, 2-Thienylmethyl(4-{[methoxy(methyl)amino]carbonyl}benzyl)carbamate]: in the test with HCT116, the GI50 was found to be 4.3 µM, the IC (TGI) was found to be 9 µM and the LC50 (concentration giving 50% net cell kill relative to T0) worked out at 65 µM. For the same compound, in the test on NCIH460, the GI50 was 1 µM, the IC (TGI) was 31 µM and the LC50 was above 100 µM. Also, the “Mean GI50” value in test [1] is reported as 1.8. In the test with HDAC, the “HDAC Inhibition 1 μM” value amounted to 4.8 and the “HDAC Inhibition 10 μM” value was 1.9. In the test with MDAMB-231/U 251, the CC50 was above 100 µM, the GI50 amounted to 0.03 µM and the IC (TGI) worked out at 57 µM.
For `O=C(NCc1ccc(C(=O)N2CCN(Cc3ccc4c(c3)OCO4)CC2)cc1)OCc1cccs1` [Example 52, 2-Thienylmethyl(4-{[4-(1,3-benzodioxol-5-ylmethyl)piperazin-1-yl]carbonyl}benzyl)carbamate], in the test with HCT116, the GI50 was determined as 0.4 µM, the IC (TGI) stood at 5.8 µM and the LC50 (concentration giving 50% net cell kill relative to T0) was above 100 µM. For the same compound, in the test with NCIH460, the GI50 stood at 0.04 µM, the IC (TGI) came to 0.5 µM and the LC50 is above 100 µM. In addition, the “Mean GI50” value in test [1] is listed as 0.6. Also, in the test with HDAC, the “HDAC Inhibition 1 μM” value turned out to be 2.2 and the “HDAC Inhibition 10 μM” value is given as 4.1. Also, in the test on MDAMB-231/U 251, the CC50 was above 100 µM, the GI50 was 1.3 µM and the IC (TGI) is above 100 µM.
As to `COC(CNC(=O)c1ccc(CNC(=O)OCc2cccs2)cc1)OC` [Example 53, 2-Thienylmethyl (4-{[(2,2-dimethoxyethyl)amino]carbonyl}benzyl)carbamate], in the test on HCT116, the GI50 is 0.12 µM, the IC (TGI) is 6.1 µM and the LC50 (concentration giving 50% net cell kill relative to T0) was above 100 µM. In the test on NCIH460, the GI50 was found to be 0.02 µM, the IC (TGI) was 1 µM and the LC50 is above 100 µM. Also, the “Mean GI50” value in test [1] turned out to be 2.4. Also, in the test on HDAC, the “HDAC Inhibition 1 μM” value was 4.3 and the “HDAC Inhibition 10 μM” value is listed as 1.6. Moreover, in the test with MDAMB-231/U 251, the CC50 was above 100 µM, the GI50 came to 7.1 µM and the IC (TGI) was above 100 µM.

One may read the GI50 as the concentration at which growth is held to half of that of the control. One may read the LC50 as the concentration lethal to half of the exposed cells or organisms. As a reminder, the IC50 is the concentration that inhibits the measured activity by half.
